Data on two molecules can be found in PMC9706920, “Aryloxypropanolamine targets amyloid aggregates and reverses Alzheimer-like phenotypes in Alzheimer mouse models” (Alzheimer's Research & Therapy, 2022).

Data set [1] can be described thus: Observation of adverse effects in the current studies.
A further data set has as its target T1, CYP 3A4 (Homo sapiens, UniProt P08684).
T1 construct: contained human liver microsomes (0.25 mg/ml); from tissue; host or cells: human liver microsomes
As to the kind of experiment: CYP450 inhibition assay, 3A4. Type of data set: in vitro ADME. As to conditions: YIAD002 10 μM, human liver microsomes; weak or no inhibition; read-out: CYP 3A4 inhibition, IC50 (inhibition criteria). As for the experimental part:
(§1) Incubation mixtures for Cytochrome P450s (CYPs) inhibition assay contained human liver microsomes (0.25 mg/ml), 0.1 M phosphate buffer (pH 7.4), 10 μM of YIAD002, and an enzyme substrate cocktail (phenacetin 50 μM, diclofenac 10 μM, S-mephenytoin 100 μM, dextromethorphan 5 μM, and midazolam 2.5 μM). The mixture was pre-incubated at 37°C for 5 min and 1 mM NAPDH was added to initiate reactions. After 15 min of incubation, acetonitrile with terfenadine was added to stop reactions and microsomal solutions were centrifuged at 14,000 rpm at 4°C for 5 min. For LC-MS/MS analysis, supernatants were injected on a Kinetex C18 column (2.1 × 100 mm, 2.6 μm particle size, Phenomenex, USA). The composition of the mobile phase was 0.1% formic acid in water (A) and 0.1% formic acid in acetonitrile (B).
In general terms: Liver microsomes are a subcellular fraction often used to study metabolism.

A further data set has as its system 5XFAD mice. As to the kind of experiment: 6E10 immunohistochemical staining of amyloid plaques in 5XFAD mice after oral administration. As to conditions: 50 mg/kg/day via drinking water, 5 weeks, 4.5-month-old female 5XFAD mice, vs vehicle. Type of data set: in vivo, mouse. As to the method: To test the in vivo efficacy of YIAD001 and YIAD002, female 5XFAD mice (n = 25) and female wildtype mice (n = 7) were assessed at the age of 4.5 months. YIAD compounds were dissolved in DMSO and diluted in drinking water to a final concentration of 50 mg/kg/day (5% DMSO, 5% Tween) for oral administration. The three compounds, YIAD001, YIAD002, and YIAD003, were freely administered via drinking water to 4.5-month-old 5XFAD mice (n = 6 for each group) for 5 weeks. As a control, 5% DMSO, 5% Tween in drinking water was provided ad libitum to littermate 5XFAD mice (n = 7) and wildtype mice (n = 7) for 5 weeks.
After the administration period, the mice were deeply anaesthetized with 4% avertin through intraperitoneal injection and transcardially perfused with 0.9% saline. Subsequently, the mice were sacrificed for brain excision. Each collected brain was divided through the mid-sagittal section; the hippocampal and cortical regions were dissected from one half and stored at −80°C for subsequent brain lysates, while the other half was immersed in 4% paraformaldehyde (pH 7.4) for 24 h and 30% sucrose for 48 h at 4°C and subsequently deep-froze at −80°C for immunohistochemistry.
Coronal hippocampal sections of 5XFAD mice brains (35 μm) were cut with a Cryostat (Leica, CM1860) and mounted onto glass slides. Antigen retrieval was performed by submerging slides in 1% SDS and unspecific binding was blocked through incubation in 20% horse serum in PBS for 1 h at RT. Aβ deposits were visualized through immunolabeling by anti-6E10 antibody (1:200 in PBS with 5% horse serum, Biolegend 803003) and detection by fluorescent secondary antibody (1:200 in PBS, IgG Alexa 488). Brain sections were additionally stained with Hoechst 33342. Fluorescent images of the brain sections were taken on a Leica DM2500 fluorescence microscope. Amyloid plaques were quantified using Image-J software (NIH).

Another data set addresses T2, CYP 2D6 (Homo sapiens, UniProt P10635).
T2 construct: contained human liver microsomes (0.25 mg/ml); from tissue; host or cells: human liver microsomes
As to the kind of experiment: CYP450 inhibition assay, 2D6. As to conditions: YIAD002 10 μM, human liver microsomes; weak or no inhibition; read-out: CYP 2D6 inhibition, IC50 (inhibition criteria). It counts as in vitro ADME. As for the experimental part: as §1

Another data set concerns the target T3, Aβ(1–42) aggregates (Homo sapiens, UniProt P05067).
T3 construct: made in house; host or cells: chemical synthesis (Fmoc solid phase peptide synthesis)
As to the kind of experiment: SDS-PAGE with PICUP and silver staining. It counts as biochemical. As to conditions: 500 μM compound, aggregated Aβ(1–42). As for the experimental part:
SDS-PAGE with photo-induced cross-linking of unmodified proteins (PICUP) and silver staining was used to evaluate the disaggregating effects of YIAD001 and YIAD002 by visualizing the size distributions and band intensity of Aβ(1–42). Samples were prepared under the same conditions as the Aβ(1–42) disaggregation ThT fluorescence assay. Amyloid proteins in the samples from the aforementioned disaggregation assay were subjected to cross-linking, initiated by irradiation (three exposures, each for 1 second) in the presence of tris(2,2′-bipyridyl)dichlororuthenium(II) hexahydrate (Ru(Bpy)) (1 mM) and 1 μL of ammonium persulfate (20 mM). Reactions were immediately quenched with β-mercaptoethanol and boiled for 5 min at 95°C. After cross-linking the samples, we separated amyloid species by SDS-PAGE on a 15% tris-tricine gel and performed silver staining according to the PlusOne Silver Staining kit protocol (GE Healthcare, USA).

In the next data set the target is T4, CYP 2C9 (Homo sapiens, UniProt P11712).
T4 construct: contained human liver microsomes (0.25 mg/ml); from tissue; host or cells: human liver microsomes
T4 sequence (P11712 whole entry): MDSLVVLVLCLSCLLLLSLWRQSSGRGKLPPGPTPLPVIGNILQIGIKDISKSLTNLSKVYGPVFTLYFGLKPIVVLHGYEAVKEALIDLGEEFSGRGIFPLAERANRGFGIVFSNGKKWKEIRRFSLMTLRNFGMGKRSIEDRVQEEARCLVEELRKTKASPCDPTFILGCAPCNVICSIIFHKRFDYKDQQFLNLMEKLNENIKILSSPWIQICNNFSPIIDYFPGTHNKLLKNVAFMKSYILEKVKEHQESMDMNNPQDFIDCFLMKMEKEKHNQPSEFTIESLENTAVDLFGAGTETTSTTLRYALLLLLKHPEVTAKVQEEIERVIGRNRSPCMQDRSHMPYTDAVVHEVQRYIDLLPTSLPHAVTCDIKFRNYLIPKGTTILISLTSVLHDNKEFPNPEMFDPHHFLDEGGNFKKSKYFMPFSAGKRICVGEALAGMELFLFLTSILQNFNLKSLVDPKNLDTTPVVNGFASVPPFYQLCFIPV
As to the kind of experiment: CYP450 inhibition assay, 2C9. Type of data set: in vitro ADME. The note with it: YIAD002 10 μM, human liver microsomes; weak or no inhibition; read-out: CYP 2C9 inhibition, IC50 (inhibition criteria). As to the method:
as §1

A short description of data set [2]: Microsomal stability, mouse. The note with it: 1 μM, 30 min, 37°C. It counts as in vitro ADME. As for the experimental part:
(§2) To evaluate the rate of drug metabolism, we tested YIAD002 stability in liver microsomes of human, rat, and mouse. Microsomal concentration was 0.5 mg/ml in 0.1 M phosphate buffer (pH 7.4). 1 μM of YIAD002 was added to microsome solutions and was prewarmed at 37°C for 5 min. NADPH-regenerating solution was added to microsomes and incubated at 37°C for 30 min. At the end of incubation, acetonitrile with chlorpropamide was added to stop reactions and microsomal solutions were centrifuged at 14,000 rpm at 4°C for 5 min. For LC-MS/MS analysis, supernatants were injected on a Kinetex C18 column (2.1 × 100 mm, 2.6 μm particle size, Phenomenex, USA). The composition of the mobile phase was 0.1% formic acid in water (A) and 0.1% formic acid in acetonitrile (B).

A short description of data set [3]: Microsomal stability, rat. Type of data set: in vitro ADME. As to conditions: 1 μM, 30 min, 37°C. As to the method: as §2

T3 sequence (P05067 672-713 limits assumed): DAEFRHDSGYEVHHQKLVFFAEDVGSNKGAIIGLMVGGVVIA
T1 sequence (P08684 whole entry): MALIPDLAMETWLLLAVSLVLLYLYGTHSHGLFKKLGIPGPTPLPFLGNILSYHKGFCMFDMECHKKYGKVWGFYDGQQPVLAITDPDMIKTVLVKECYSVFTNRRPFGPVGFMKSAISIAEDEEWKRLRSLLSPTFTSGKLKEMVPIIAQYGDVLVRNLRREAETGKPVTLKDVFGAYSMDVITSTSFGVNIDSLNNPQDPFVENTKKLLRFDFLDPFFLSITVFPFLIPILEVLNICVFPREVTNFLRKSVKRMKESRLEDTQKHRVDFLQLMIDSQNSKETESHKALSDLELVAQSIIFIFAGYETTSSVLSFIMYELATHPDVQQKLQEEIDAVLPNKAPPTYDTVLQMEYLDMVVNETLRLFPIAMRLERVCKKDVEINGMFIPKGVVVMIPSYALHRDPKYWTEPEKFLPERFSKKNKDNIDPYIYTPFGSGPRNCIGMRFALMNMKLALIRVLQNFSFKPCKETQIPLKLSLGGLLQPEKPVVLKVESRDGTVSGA
T2 sequence (P10635 whole entry): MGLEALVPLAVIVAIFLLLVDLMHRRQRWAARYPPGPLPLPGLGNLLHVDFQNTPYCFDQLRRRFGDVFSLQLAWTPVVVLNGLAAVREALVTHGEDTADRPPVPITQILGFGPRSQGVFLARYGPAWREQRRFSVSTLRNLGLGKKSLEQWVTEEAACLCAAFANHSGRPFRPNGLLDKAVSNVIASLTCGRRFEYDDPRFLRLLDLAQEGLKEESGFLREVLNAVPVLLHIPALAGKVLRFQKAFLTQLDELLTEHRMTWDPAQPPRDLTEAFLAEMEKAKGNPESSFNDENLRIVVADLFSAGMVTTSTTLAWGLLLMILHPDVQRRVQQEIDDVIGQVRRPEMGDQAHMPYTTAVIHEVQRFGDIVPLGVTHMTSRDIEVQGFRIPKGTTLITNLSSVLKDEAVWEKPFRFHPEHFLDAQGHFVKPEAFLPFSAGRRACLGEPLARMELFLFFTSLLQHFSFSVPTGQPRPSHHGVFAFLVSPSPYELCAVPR

The IC50 is the concentration that inhibits the measured activity by half. For the molecule `CCC(C)(C)c1ccc(OCC(O)CN2CCCC2)c(C(C)(C)CC)c1.Cl` (centres unmarked) [YIAD002, 1-(3-(2,4-Di-tert-pentylphenoxy)-2-hydroxypropyl)pyrrolidin-1-ium chloride], the “Adverse effects of toxicity” value in data set [1] is listed as “not observed”. The IC50 on CYP 3A4, at CYP 2D6 and on CYP 2C9 was greater than 10 µM each time. Besides, the “Number of 6E10-stained plaques” value with 5XFAD mice is reported as “significantly reduced”. In addition, in the data set with 5XFAD mice, the Plaque area result was “significant decrease”. Moreover, the “Size distribution of Aβ(1–42) bands (fibrils, monomers)” value at Aβ(1–42) aggregates was “reduced fibrils and increased monomers”. Moreover, the “Remaining compound in mouse microsomes” value in data set [2] amounted to 14.2%. In addition, in data set [3], the “Remaining compound in rat microsomes” value is recorded as 11.2%.

Take `CCC(C)(C)c1ccc(OCC(O)CN2CCOCC2)c(C(C)(C)CC)c1.Cl` (centres unmarked) [YIAD001, 4-(3-(2,4-Di-tert-pentylphenoxy)-2-hydroxypropyl)morpholin-4-ium chloride]: the “Number of 6E10-stained plaques” value with 5XFAD mice is “significantly reduced”. Also, the “Size distribution of Aβ(1–42) bands (fibrils, monomers)” value on Aβ(1–42) aggregates was “reduced fibrils and increased monomers”.
